ChEMBL document CHEMBL1201862, “PubChem BioAssay data set” (2004)
Activity calls are given as the source filed them.

What was measured:
[1] = bead-based luminescence quenchers, dual-tagged ARNT – biochemical, AlphaScreen, cherry-pick, artefact control for ARNT-TACC3 interaction inhibitor project, dose response (AID 651705); assay type: functional;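 further: AlphaScreen bead proximity signal that flags compounds interfering with the detection technology; potency reflects signal decrease which marks the compound as an assay artifact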
Caspase-6 = target: T1, Caspase-6 (Homo sapiens, UniProt P55212); assay: inhibition of CASP6 peptide cleavage – biochemical, VEID-R110 fluorescence, cherry-pick, dose response (AID 720632)
T1 sequence (P55212 whole entry): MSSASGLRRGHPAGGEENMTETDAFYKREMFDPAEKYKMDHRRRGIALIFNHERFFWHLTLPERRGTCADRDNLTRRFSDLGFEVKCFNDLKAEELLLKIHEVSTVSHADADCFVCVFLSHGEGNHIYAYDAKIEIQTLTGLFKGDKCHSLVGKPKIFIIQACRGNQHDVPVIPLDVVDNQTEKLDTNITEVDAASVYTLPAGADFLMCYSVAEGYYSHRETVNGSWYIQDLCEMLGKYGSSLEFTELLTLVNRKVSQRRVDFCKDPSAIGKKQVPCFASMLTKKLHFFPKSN

[2] = target: Dual specificity tyrosine-phosphorylation-regulated kinase 1A (Rattus norvegicus, UniProt Q63470); assay type: biochemical, Homo sapiens
P388/ADR = assay: cells; assay type: functional; conditions: Mus musculus
[3] = target: Tyrosyl-DNA phosphodiesterase 2 (Homo sapiens, UniProt O95551); assay: potency against TDP2 phosphodiesterase activity – biochemical, epi absorbance, IC50, dose response (AID 743297)
Chain of Tyrosyl-DNA phosphodiesterase 2 (O95551 whole entry): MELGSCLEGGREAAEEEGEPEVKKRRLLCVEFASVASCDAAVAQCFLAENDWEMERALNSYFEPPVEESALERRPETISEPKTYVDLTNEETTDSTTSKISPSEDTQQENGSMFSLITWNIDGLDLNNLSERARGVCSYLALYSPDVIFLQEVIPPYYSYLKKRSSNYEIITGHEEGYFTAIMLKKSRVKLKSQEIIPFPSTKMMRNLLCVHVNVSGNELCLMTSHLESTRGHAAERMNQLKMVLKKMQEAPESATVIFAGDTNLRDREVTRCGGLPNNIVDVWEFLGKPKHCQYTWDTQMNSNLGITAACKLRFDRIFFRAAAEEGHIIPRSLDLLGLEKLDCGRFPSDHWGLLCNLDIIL

Protein RecA = target: T2, Protein RecA (Mycobacterium tuberculosis, UniProt P9WHJ3); assay: Fluorescence Cell-Free Homogeneous Dose Retest to Identify Inhibitors of RecA-Intein Splicing Activity. [Related pubchem assays (depositor defined):AID2097, AID2223, AID489010, AID492950]; assay type: functional
T2 sequence (P9WHJ3 whole entry): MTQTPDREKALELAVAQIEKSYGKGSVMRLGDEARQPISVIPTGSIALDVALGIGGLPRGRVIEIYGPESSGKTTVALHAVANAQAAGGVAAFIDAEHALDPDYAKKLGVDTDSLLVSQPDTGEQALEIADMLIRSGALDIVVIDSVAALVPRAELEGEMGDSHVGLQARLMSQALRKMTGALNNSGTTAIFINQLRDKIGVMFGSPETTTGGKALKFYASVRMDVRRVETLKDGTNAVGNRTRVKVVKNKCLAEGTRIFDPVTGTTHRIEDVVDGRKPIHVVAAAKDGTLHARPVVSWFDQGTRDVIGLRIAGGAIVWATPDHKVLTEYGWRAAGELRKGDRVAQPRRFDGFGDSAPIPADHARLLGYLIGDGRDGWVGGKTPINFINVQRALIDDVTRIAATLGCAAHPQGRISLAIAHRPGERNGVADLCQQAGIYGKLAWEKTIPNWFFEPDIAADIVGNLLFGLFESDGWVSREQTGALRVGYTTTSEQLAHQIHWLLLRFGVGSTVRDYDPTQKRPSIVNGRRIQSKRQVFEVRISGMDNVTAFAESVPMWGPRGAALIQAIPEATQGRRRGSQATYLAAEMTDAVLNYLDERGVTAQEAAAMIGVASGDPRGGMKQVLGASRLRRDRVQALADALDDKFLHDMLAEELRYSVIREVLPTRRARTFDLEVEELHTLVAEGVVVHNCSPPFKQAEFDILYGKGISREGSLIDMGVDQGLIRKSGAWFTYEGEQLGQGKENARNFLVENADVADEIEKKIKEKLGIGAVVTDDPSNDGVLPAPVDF

[4] = target: T3, DNA repair protein RAD52 homolog (Homo sapiens, UniProt P43351); assay type: functional, biochemical
T3 sequence (P43351 whole entry): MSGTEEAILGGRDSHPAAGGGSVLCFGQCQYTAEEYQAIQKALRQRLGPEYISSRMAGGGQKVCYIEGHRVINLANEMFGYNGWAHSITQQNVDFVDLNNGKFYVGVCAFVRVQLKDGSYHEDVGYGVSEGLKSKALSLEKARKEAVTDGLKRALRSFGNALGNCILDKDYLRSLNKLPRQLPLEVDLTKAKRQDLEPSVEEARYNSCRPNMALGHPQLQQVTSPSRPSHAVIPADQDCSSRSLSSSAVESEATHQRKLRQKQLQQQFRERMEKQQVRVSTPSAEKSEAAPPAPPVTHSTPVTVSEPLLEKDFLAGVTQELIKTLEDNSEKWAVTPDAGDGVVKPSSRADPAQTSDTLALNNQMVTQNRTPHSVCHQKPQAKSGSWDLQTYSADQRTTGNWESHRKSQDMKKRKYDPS

P388 = assay: cells; assay type: functional; conditions: Mus musculus
SN12K1 = assay: cells; assay type: functional; conditions: Homo sapiens
[5] = target: T4, Replicative DNA helicase DnaB (Mycobacterium tuberculosis, UniProt P9WMR3); assay: DnaB intein splicing inhibitors, dose response, biochemical, cell-free fluorescence (AID 449749); assay type: functional
T4 sequence (P9WMR3 whole entry): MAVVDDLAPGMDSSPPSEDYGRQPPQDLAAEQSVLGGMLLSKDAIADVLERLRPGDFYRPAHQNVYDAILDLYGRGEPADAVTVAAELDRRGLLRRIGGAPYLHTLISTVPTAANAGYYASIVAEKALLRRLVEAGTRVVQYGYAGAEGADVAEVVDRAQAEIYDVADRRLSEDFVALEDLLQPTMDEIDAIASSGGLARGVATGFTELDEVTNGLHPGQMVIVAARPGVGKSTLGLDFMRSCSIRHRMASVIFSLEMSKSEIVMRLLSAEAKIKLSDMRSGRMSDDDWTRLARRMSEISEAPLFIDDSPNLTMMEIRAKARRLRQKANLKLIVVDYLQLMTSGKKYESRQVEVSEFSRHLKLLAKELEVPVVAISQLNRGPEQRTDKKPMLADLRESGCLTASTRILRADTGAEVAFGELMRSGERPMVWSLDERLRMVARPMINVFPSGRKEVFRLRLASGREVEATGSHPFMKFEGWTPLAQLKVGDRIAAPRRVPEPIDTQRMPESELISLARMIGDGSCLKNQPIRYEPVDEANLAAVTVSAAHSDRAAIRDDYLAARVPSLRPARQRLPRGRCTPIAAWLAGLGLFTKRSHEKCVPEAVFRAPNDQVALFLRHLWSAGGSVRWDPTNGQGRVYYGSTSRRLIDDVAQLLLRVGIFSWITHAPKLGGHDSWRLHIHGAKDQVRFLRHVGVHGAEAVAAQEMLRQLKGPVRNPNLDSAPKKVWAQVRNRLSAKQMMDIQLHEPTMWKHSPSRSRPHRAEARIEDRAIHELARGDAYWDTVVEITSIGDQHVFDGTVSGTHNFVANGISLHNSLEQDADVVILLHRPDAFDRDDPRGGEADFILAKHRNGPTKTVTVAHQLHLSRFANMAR

[6] = viability loss in A549 lung cancer cells – cell-based, cherry-picks, […], cytotoxicity control, dose response (AID 1053119); assay type: functional
[7] = activation of miR-122 Renilla sensor silencing – cell-based, Huh7 psiCHECK-miR122, Renilla luciferase, cherry-picked, dose response (AID 651956); assay type: functional;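 further: huh7 hepatoma cells stably carrying a psiCHECK-2 miR-122 sensor plasmid; renilla luciferase signal reporting endogenous miR-122 activity after 48 h compound exposure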
[8] = viability loss in HEK293 kidney cells – cell-based, cherry-picks, set 5, cytotoxicity control, dose response (AID 1053117); assay type: functional
[9] = general mammalian cell viability loss – activator set, cherry-pick, cytotoxicity control for miR-122 modulator project, dose response (AID 720690); assay type: functional, cell-based;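 further: HEK293T human cells scored for general mammalian cytotoxicity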
[10] = inhibition of ADAM10 peptide cleavage – biochemical, FRET peptide substrate, recombinant human ADAM10, selectivity assay for ADAM17 exosite inhibitor project, dose response (AID 743259);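 further: ADAM10 enzyme cleaving a FRET peptide substrate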
[11] = target: Disintegrin and metalloproteinase domain-containing protein 17 (Homo sapiens, UniProt P78536); assay: exosite inhibitors of ADAM17, dose response, biochemical (AID 743260)
Chain of Disintegrin and metalloproteinase domain-containing protein 17 (P78536 whole entry, the tested form may be a part): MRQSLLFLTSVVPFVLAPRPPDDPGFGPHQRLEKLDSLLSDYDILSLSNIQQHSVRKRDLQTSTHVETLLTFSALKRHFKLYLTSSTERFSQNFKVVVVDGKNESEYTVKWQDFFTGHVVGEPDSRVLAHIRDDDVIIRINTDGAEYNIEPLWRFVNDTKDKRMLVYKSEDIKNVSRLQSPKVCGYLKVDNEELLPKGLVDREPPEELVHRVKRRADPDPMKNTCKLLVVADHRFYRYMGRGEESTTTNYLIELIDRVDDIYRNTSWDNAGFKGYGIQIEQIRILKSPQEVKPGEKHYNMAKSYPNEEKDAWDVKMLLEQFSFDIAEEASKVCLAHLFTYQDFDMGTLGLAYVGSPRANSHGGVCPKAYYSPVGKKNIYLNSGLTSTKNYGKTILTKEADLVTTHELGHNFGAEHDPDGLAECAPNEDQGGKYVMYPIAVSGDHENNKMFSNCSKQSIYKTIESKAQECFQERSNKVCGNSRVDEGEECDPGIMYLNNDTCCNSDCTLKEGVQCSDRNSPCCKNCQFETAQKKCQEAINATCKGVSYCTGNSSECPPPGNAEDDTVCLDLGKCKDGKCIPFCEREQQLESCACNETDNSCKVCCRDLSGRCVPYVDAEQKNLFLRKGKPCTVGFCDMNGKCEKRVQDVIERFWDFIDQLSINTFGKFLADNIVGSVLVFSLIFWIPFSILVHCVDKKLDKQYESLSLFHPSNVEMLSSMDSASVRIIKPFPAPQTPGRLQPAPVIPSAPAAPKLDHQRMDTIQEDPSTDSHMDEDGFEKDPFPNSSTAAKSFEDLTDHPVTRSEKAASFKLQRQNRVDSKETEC

Paired box protein Pax-8 = Paired box protein Pax-8 (Homo sapiens, UniProt Q06710); assay: PAX8 transcriptional activity inhibition in RMG-I – RMG-I cells, luciferase, cherry-pick, dose response (AID 687027); assay type: functional, cell-based;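 further: luciferase reporter driven by Pax8 target thyroperoxidase promoter measured by SteadyGlo luminescence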
Chain of Paired box protein Pax-8 (Q06710 whole entry): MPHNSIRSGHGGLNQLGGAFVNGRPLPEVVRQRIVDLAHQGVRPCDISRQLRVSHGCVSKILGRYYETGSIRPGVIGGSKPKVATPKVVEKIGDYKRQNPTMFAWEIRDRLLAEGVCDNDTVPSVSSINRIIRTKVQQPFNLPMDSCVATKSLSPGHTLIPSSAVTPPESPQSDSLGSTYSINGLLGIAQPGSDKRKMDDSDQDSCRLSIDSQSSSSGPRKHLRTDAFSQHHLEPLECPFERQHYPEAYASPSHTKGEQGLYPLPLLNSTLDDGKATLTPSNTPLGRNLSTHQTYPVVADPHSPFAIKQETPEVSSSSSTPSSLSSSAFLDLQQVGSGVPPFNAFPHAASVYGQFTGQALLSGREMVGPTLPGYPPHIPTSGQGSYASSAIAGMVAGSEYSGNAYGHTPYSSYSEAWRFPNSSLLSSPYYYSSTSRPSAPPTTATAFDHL

[12] = target: T5, Rac GTPase-activating protein 1 (Homo sapiens, UniProt Q9H0H5); assay: blockers of MgcRacGAP-driven Rac1 GTP hydrolysis – biochemical, ADP Hunter fluorescence, primary and confirmatory, confirmation (AID 624330); assay type: functional
T5 sequence (Q9H0H5 whole entry): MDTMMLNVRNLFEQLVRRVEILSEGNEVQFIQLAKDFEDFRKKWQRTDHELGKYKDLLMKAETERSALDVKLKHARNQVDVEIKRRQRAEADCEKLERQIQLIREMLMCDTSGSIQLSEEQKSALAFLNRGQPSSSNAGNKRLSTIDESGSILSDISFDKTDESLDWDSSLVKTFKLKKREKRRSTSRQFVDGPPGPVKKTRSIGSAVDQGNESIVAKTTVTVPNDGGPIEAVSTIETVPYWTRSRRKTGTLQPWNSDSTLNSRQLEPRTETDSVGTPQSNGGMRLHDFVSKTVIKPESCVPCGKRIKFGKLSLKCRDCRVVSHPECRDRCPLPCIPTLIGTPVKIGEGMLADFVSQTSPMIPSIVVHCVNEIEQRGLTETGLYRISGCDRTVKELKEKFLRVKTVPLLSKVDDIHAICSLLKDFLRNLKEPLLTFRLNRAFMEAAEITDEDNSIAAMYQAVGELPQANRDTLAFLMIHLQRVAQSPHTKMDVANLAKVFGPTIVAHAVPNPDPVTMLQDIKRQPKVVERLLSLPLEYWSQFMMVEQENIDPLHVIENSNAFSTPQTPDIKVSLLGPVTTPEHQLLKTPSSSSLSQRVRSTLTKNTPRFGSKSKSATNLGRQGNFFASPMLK

[13] = Luminescence Cell-Based Dose Response HTS to Identify Inhibitors of 5'UTR Stem-Loop Driven Prion Protein mRNA Translation in H4 Neuroglioblastoma Cells. [Related pubchem assays: 1827 (Project Summary), 1813 (Primary HTS)]; assay type: functional
[14] = viability loss in HeLa cells – cytotoxicity control for MgcRacGAP inhibitor project, dose response (AID 624300); assay type: functional
[15] = alpha-synuclein stem-loop luciferase translation blockers – H4 neuroglioma cells, luminescence, confirmation (AID 1988); assay type: functional, cell-based
[16] = general cell-killing toxicity readout – plate reader, dry powder samples, cytotoxicity control for PAX8 inhibitor project, dose response (AID 743021); assay type: functional, cell-based
[17] = luciferase reporter signal suppression in cells – H4 neuroglioma cells, luminescence, dose response (AID 1990); assay type: functional, cell-based
[18] = target: T6, Ubiquitin-conjugating enzyme E2 N (Homo sapiens, UniProt P61088); assay type: functional;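 further: Dose-response confirmation in a TR-FRET assay detecting UBC13-driven polyubiquitin chain formation, inhibition measured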
T6 sequence (P61088 whole entry): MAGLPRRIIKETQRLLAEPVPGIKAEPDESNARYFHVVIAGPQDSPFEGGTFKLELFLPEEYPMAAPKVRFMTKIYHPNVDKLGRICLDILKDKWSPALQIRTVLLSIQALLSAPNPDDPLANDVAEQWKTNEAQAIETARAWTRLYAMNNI

[19] = target: Endoplasmic reticulum aminopeptidase 1 (Homo sapiens, UniProt Q9NZ08); assay: inhibition of human ERAP1 enzyme activity – biochemical, cherry-pick, set 2, plate reader, dose response (AID 743314)
Chain of Endoplasmic reticulum aminopeptidase 1 (Q9NZ08 whole entry, the tested form may be a part): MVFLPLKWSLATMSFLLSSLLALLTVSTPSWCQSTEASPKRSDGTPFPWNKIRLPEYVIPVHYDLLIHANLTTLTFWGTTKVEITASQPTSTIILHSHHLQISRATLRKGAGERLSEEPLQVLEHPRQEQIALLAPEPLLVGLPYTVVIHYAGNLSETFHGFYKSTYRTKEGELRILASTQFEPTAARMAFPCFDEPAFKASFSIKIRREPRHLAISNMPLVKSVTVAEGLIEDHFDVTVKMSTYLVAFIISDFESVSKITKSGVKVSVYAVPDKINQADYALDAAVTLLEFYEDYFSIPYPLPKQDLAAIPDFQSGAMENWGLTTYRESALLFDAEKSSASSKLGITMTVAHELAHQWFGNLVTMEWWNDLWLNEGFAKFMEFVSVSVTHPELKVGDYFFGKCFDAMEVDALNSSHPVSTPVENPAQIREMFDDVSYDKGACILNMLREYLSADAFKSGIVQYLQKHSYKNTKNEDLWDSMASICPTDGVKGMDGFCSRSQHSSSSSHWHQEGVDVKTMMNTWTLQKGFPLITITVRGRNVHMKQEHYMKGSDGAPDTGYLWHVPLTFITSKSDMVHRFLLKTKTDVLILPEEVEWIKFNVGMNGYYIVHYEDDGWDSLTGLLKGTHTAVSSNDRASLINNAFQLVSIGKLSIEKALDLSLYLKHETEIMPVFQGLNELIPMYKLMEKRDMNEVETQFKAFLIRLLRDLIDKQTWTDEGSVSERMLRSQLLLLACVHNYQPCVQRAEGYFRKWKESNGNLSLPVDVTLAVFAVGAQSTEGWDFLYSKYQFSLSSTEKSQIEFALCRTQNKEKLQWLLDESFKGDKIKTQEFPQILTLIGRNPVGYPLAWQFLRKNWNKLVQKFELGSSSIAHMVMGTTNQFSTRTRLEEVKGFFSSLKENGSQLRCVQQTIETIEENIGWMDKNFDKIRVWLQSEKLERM

[20] = target: T7, Oxysterols receptor LXR-beta (Homo sapiens, UniProt P55055); assay type: functional, cell-based;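 further: agonist activity at LXR measured by a cell-based luminescence readout across a dose range, run as a counterscreen for daf-12 agonists; HEK293 cells with Gal4-LXR fusion and GAL4-driven luciferase reporter; potency for activation of Gal4-LXR reporter so compounds are agonists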
T7 sequence (P55055 whole entry): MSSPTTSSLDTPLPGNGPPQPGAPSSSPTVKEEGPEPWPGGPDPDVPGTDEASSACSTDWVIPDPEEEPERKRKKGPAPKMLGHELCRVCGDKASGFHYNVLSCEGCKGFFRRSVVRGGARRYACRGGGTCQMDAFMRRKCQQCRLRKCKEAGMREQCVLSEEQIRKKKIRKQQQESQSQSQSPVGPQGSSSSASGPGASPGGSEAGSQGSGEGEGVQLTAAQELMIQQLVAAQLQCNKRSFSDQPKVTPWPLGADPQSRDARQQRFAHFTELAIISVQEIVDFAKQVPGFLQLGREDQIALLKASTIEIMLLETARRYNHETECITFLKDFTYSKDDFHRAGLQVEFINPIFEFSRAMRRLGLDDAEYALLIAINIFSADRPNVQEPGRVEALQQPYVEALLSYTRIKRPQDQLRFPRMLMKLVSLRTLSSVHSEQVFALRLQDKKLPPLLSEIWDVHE

[21] = inhibitors of non-replicating M. tuberculosis, dose response, luciferase, dry powder (AID 651620); assay type: functional; conditions: Mycobacterium tuberculosis
[22] = inhibitors of non-replicating M. tuberculosis, dose response, luciferase, dry powder (AID 651619); assay type: functional; conditions: Mycobacterium tuberculosis
[23] = HeLa cell viability loss – plate reader, dry powder, cytotoxicity control, dose response (AID 651946); assay type: functional, cell-based

COc1cc2c(cc1OC)-c1c3c(cc4c1[C@@H](C2)N(C)CC4)OCO3
AC50 [1]: 116 µM (active)
AC50 (Caspase-6): 5.63 µM (active)
AC50 [2]: 2.09 µM (active)
GI50 (P388/ADR): 7.08 µM (inactive)
IC50 [3]: 7.83 µM (active)
EC50 (Protein RecA): 0.952 µM (active)
AC50 [4]: 1.18 µM (active)
GI50 (P388): 8.53 µM (inactive)
GI50 (SN12K1): 6.1 µM (inactive)
AC50 [5]: 26.7 µM (active)

CO[C@H]1CN(C)C(=O)c2cc(NC(=O)Nc3ccc(Cl)c(Cl)c3)ccc2OC[C@@H](C)NC[C@@H]1C
AC50 [6]: > 52 µM (inactive)
AC50 [7]: 21.6 µM (active)
AC50 [8]: > 52 µM (inactive)
AC50 [9]: 48 µM (active)

O=C(c1cc2c(s1)CCCCCC2)N1CCC2(CC1)OCCO2
IC50 [10]: > 69.5 µM (inactive)
IC50 [11]: > 69.5 µM (inactive)

COc1ccc2nc(C)cc(N/N=C/c3cccc(OC)c3O)c2c1
AC50 (Paired box protein Pax-8): 12 µM (active)
IC50 [12]: 51.8 µM (active)
EC50 [13]: > 120 µM (not active)
CC50 [14]: 23.4 µM (active)
EC50 [15]: 7.76 µM (active)
AC50 [16]: 32.4 µM (active)
EC50 [17]: > 120 µM (not active)
IC50 [18]: > 20 µM (inactive)

COc1ccc2c3c([nH]c2c1)[C@H](CO)N(Cc1ccccc1OC)CC31CN(C)C1
AC50 [19]: 14.9 µM (active)

CCCCCc1nnc(NC(=O)C2=COCCO2)s1
EC50 [20]: > 67.6 µM (inactive)

c1ccc(COc2nnc(-c3ccccc3)o2)cc1
IC90 [21]: 8 µM (active)
IC90 [22]: 8 µM (active)
AC50 [23]: > 52 µM (inactive)
